From patent US9029553B2, “2-anilino nicotinyl linked 2-amino benzothiazole conjugates and process for the preparation thereof” (Council of Scientific & Industrial Research, priority 2011, dated 2015)

What was measured:
Assay in all cases: NCI SRB GI50 screen
Assay type in all cases: cell-based
MDA-MB-435 = details: Homo sapiens, Melanoma, 48 hrs exposure, read-out: Growth Inhibition GI50 MDA-MB-435
Description: (§1) 2-Anilino nicotinyl linked 2-amino benzothiazole conjugates of formula 9-12 were tested against fifty nine human cancer cell lines derived from nine cancer types (leukemia, non-small cell lung cancer, colon cancer, CNS cancer, melanoma, ovarian cancer, renal cancer, prostate cancer and breast cancer) as per NCI protocol. For each compound, dose response curves for individual cell lines were measured at a minimum of five concentrations at 10 fold dilutions. A protocol of 48 hrs continuous drug exposure was used, and a sulforhodamine B (SRB) protein assay was used to estimate cell viability or growth.

SR = details: Homo sapiens, Leukemia, 48 hrs exposure, read-out: Growth Inhibition GI50 SR
Description: as §1

COLO 205 = details: Homo sapiens, Colon, 48 hrs exposure, read-out: Growth Inhibition GI50 COLO 205
Description: as §1

HOP-62 = details: Homo sapiens, Non-small lung, 48 hrs exposure, read-out: Growth Inhibition GI50 HOP-62
Description: as §1

SK-MEL-5 = details: Homo sapiens, Melanoma, 48 hrs exposure, read-out: Growth Inhibition GI50 SK-MEL-5
Description: as §1

A498 = details: Homo sapiens, Renal, 48 hrs exposure, read-out: Growth Inhibition GI50 A498
Description: as §1

SF-295 = details: Homo sapiens, CNS, 48 hrs exposure, read-out: Growth Inhibition GI50 SF-295
Description: as §1

U251 = details: Homo sapiens, U-251; CNS, 48 hrs exposure; read-out: Growth Inhibition GI50 U251
Description: as §1

KM12 = details: Homo sapiens, Colon, 48 hrs exposure, read-out: Growth Inhibition GI50 KM12
Description: as §1

TK-10 = details: Homo sapiens, Renal, 48 hrs exposure, read-out: Growth Inhibition GI50 TK-10
Description: as §1

OVCAR-5 = details: Homo sapiens, Ovarian, 48 hrs exposure, read-out: Growth Inhibition GI50 OVCAR-5
Description: as §1

SF-539 = details: Homo sapiens, CNS, 48 hrs exposure, read-out: Growth Inhibition GI50 SF-539
Description: as §1

HCC-2998 = details: Homo sapiens, Colon, 48 hrs exposure, read-out: Growth Inhibition GI50 HCC-2998
Description: as §1

K-562 = details: Homo sapiens, K562; Leukemia, 48 hrs exposure; read-out: Growth Inhibition GI50 K-562
Description: as §1

OVCAR-4 = details: Homo sapiens, Ovarian, 48 hrs exposure, read-out: Growth Inhibition GI50 OVCAR-4
Description: as §1

MALME-3M = details: Homo sapiens, read-out: Growth Inhibition GI50 MALME-3M, Melanoma, 48 hrs exposure
Description: as §1

786-0 = details: Homo sapiens, Renal, 48 hrs exposure, read-out: Growth Inhibition GI50 786-0
Description: as §1

SNB-19 = details: Homo sapiens, CNS, 48 hrs exposure, read-out: Growth Inhibition GI50 SNB-19
Description: as §1

SF-268 = details: Homo sapiens, CNS, 48 hrs exposure, read-out: Growth Inhibition GI50 SF-268
Description: as §1

OVCAR-8 = details: Homo sapiens, Ovarian, 48 hrs exposure, read-out: Growth Inhibition GI50 OVCAR-8
Description: as §1

SK-OV-3 = details: Homo sapiens, Ovarian, 48 hrs exposure, read-out: Growth Inhibition GI50 SK-OV-3
Description: as §1

ACHN = details: Homo sapiens, Renal, 48 hrs exposure, read-out: Growth Inhibition GI50 ACHN
Description: as §1

HCT-15 = details: Homo sapiens, Colon, 48 hrs exposure, read-out: Growth Inhibition GI50 HCT-15
Description: as §1

IGROV1 = details: Homo sapiens, IGROV-1; Ovarian, 48 hrs exposure; read-out: Growth Inhibition GI50 IGROV1
Description: as §1

BT-549 = details: Homo sapiens, Breast, 48 hrs exposure, read-out: Growth Inhibition GI50 BT-549
Description: as §1

A549/ATCC = details: Homo sapiens, Non-small lung, 48 hrs exposure, read-out: Growth Inhibition GI50 A549/ATCC
Description: as §1

MDA-MB-468 = details: Homo sapiens, Breast, 48 hrs exposure, read-out: Growth Inhibition GI50 MDA-MB-468
Description: as §1

SK-MEL-2 = details: Homo sapiens, Melanoma, 48 hrs exposure, read-out: Growth Inhibition GI50 SK-MEL-2
Description: as §1

## O=C(Nc1nc2ccc(F)cc2s1)c1cccnc1Nc1ccc(Cl)cc1Cl [Compound 10, N3-(6-fluoro-1,3-benzothiazol-2-yl)-2-(2,4-dichloroanilino)nicotinamide]
MDA-MB-435
  GI50: 3.03 µM
SR
  GI50: 3.03 µM
COLO 205
  GI50: 1.9 µM
HOP-62
  GI50: 3.94 µM
SK-MEL-5
  GI50: 1.71 µM
A498
  GI50: 2.83 µM
SF-295
  GI50: 1.83 µM
U251
  GI50: 2.9 µM
KM12
  GI50: 2.9 µM
TK-10
  GI50: 3.05 µM
OVCAR-5
  GI50: 4.46 µM
SF-539
  GI50: 4.02 µM
HCC-2998
  GI50: 3.54 µM
K-562
  GI50: 1.78 µM
OVCAR-4
  GI50: 2.96 µM
MALME-3M
  GI50: 2.38 µM
786-0
  GI50: 3.77 µM
SNB-19
  GI50: 3.66 µM
SF-268
  GI50: 3.88 µM
OVCAR-8
  GI50: 2.78 µM
SK-OV-3
  GI50: 2.5 µM
ACHN
  GI50: 3.72 µM
HCT-15
  GI50: 3.74 µM
IGROV1
  GI50: 1.82 µM
BT-549
  GI50: 3.01 µM
A549/ATCC
  GI50: 2.96 µM
MDA-MB-468
  GI50: 1.88 µM
SK-MEL-2
  GI50: 1.74 µM

## COc1ccc2nc(NC(=O)c3cccnc3Nc3cc(OC)c(OC)c(OC)c3)sc2c1 [Compound 12, N-3-(6-methoxy-1,3-benzothiazol-2-yl)-2-(3,4,5-trimethoxyanilino) nicotinamide]
MDA-MB-435
  GI50: 1.85 µM
SR
  GI50: 2.31 µM
COLO 205
  GI50: 17.4 µM
HOP-62
  GI50: 6.33 µM
SK-MEL-5
  GI50: 11.3 µM
A498
  GI50: 2.19 µM
SF-295
  GI50: 8.34 µM
U251
  GI50: 7.1 µM
KM12
  GI50: 4.51 µM
TK-10
  GI50: 4.31 µM
OVCAR-5
  GI50: 14.5 µM
SF-539
  GI50: 2.81 µM
HCC-2998
  GI50: 17 µM
K-562
  GI50: 8.91 µM
OVCAR-4
  GI50: 15 µM
MALME-3M
  GI50: 10.1 µM
786-0
  GI50: 5.6 µM
SNB-19
  GI50: 15 µM
SF-268
  GI50: 4.43 µM
OVCAR-8
  GI50: 6.52 µM
SK-OV-3
  GI50: 3.72 µM
ACHN
  GI50: 6.47 µM
HCT-15
  GI50: 11.2 µM
IGROV1
  GI50: 13.2 µM
BT-549
  GI50: 11.6 µM
A549/ATCC
  GI50: 7.38 µM
MDA-MB-468
  GI50: 17.8 µM

## O=C(Nc1nc2ccc(F)cc2s1)c1cccnc1Nc1ccc(Cl)cc1 [Compound 9, N3-(6-fluoro-1,3-benzothiazol-2-yl)-2-(4-chloroanilino)nicotinamide]
MDA-MB-435
  GI50: 2.99 µM
SR
  GI50: 2.28 µM
COLO 205
  GI50: 1.68 µM
HOP-62
  GI50: 2.7 µM
SK-MEL-5
  GI50: 1.11 µM
A498
  GI50: 1.92 µM
SF-295
  GI50: 1.8 µM
U251
  GI50: 3.03 µM
KM12
  GI50: 2.61 µM
TK-10
  GI50: 3 µM
OVCAR-5
  GI50: 2.63 µM
SF-539
  GI50: 2.7 µM
HCC-2998
  GI50: 2.75 µM
K-562
  GI50: 0.726 µM
OVCAR-4
  GI50: 2.92 µM
MALME-3M
  GI50: 1.94 µM
786-0
  GI50: 2.78 µM
SNB-19
  GI50: 3.65 µM
SF-268
  GI50: 3.93 µM
OVCAR-8
  GI50: 2.24 µM
SK-OV-3
  GI50: 2.23 µM
ACHN
  GI50: 3.08 µM
HCT-15
  GI50: 3.32 µM
IGROV1
  GI50: 2 µM
BT-549
  GI50: 2.05 µM
A549/ATCC
  GI50: 2.32 µM
MDA-MB-468
  GI50: 1.61 µM
SK-MEL-2
  GI50: 1.25 µM

## COc1cc(Nc2ncccc2C(=O)Nc2nc3ccc(F)cc3s2)cc(OC)c1OC [Compound 11, N3-(6-fluoro-1,3-benzothiazol-2-yl)-2-(3,4,5-trimethoxyanilino)nicotinamide]
MDA-MB-435
  GI50: 2.87 µM
SR
  GI50: 2.97 µM
COLO 205
  GI50: 3.04 µM
HOP-62
  GI50: 5.78 µM
SK-MEL-5
  GI50: 1.63 µM
A498
  GI50: 3.45 µM
SF-295
  GI50: 2.55 µM
U251
  GI50: 3.01 µM
KM12
  GI50: 3.79 µM
OVCAR-5
  GI50: 25.6 µM
SF-539
  GI50: 3.84 µM
HCC-2998
  GI50: 2.94 µM
K-562
  GI50: 1.68 µM
OVCAR-4
  GI50: 2.73 µM
MALME-3M
  GI50: 3.27 µM
786-0
  GI50: 5.51 µM
SNB-19
  GI50: 3.49 µM
SF-268
  GI50: 6.56 µM
OVCAR-8
  GI50: 3.62 µM
SK-OV-3
  GI50: 7.4 µM
ACHN
  GI50: 4.82 µM
HCT-15
  GI50: 4.38 µM
IGROV1
  GI50: 1.77 µM
BT-549
  GI50: 2.63 µM
A549/ATCC
  GI50: 3.11 µM
MDA-MB-468
  GI50: 1.22 µM
SK-MEL-2
  GI50: 2.34 µM
